The values that follow come from US8044211B2 (Chroma Therapeutics Ltd., priority 2006, dated 2011).

The test system of experiment [1] is human whole blood TNFα release. As to the kind of experiment: LPS-stimulation of human whole blood, TNF-α by ELISA. Format: cell-based. As to conditions: IC50 range, LPS 100 ng/ml, 6 hrs, read-out: Inhibitor activity versus human whole blood TNFα release. The procedure:
Whole blood was taken by venous puncture using heparinised vacutainers (Becton Dickinson) and diluted in an equal volume of RPMI 1640 tissue culture media (Sigma). 100 μl was plated in V-bottomed 96 well tissue culture treated plates. 2 hrs after the addition of the inhibitor in 100 μl of RPMI 1640 media, the blood was stimulated with LPS (E. coli strain 005:B5, Sigma) at a final concentration of 100 ng/ml and incubated at 37° C. in 5% CO2 for 6 hrs. TNF-α levels were measured from cell-free supernatants by sandwich ELISA (R&D Systems #QTA00B)

The test system of a further experiment is THP-1 TNFα release. The experiment can be described thus: LPS-stimulation of THP-1 cells, TNF-α by ELISA. The experiment is classed as cell-based. As to conditions: Homo sapiens, THP-1; IC50 range; LPS 1 μg/ml, 6 hrs; read-out: Inhibitor activity versus THP-1 TNFα release. In outline:
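THP-1 cells (4×10^4/well) rested 16 h, preincubated 2 h with inhibitor, then stimulated with 1 μg/ml E. coli LPS for 6 h at 37 °C, 5% CO2. TNF-α quantified in cell-free supernatants by sandwich ELISA.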
(In general: An ELISA detects its analyte on a solid surface through an enzyme-linked reagent.)

The target in another experiment is T1, p38 MAP Kinase a (Homo sapiens, UniProt Q16539).
T1 construct: purchased Upstate (Dundee UK)
The experiment can be described thus: p38 MAP Kinase activity, radiometric filter-binding assay (Upstate). The experiment is classed as biochemical. The conditions noted are these: IC50 range; ATP at or close to Km; read-out: Inhibitor activity versus p38 MAPKa. In outline: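 Human p38 MAP kinase α (5-10 mU) with 0.33 mg/mL myelin basic protein, 25 mM Tris pH 7.5, 0.002 mM EGTA, 10 mM Mg acetate and [γ-33P]ATP at or near Km; 40 min at RT. Phosphoric acid stop, P30 filter binding and scintillation counting; IC50 from 9-step ⅓-log dilutions from 10 μM top concentration, duplicates.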

T1 sequence (Q16539 whole entry): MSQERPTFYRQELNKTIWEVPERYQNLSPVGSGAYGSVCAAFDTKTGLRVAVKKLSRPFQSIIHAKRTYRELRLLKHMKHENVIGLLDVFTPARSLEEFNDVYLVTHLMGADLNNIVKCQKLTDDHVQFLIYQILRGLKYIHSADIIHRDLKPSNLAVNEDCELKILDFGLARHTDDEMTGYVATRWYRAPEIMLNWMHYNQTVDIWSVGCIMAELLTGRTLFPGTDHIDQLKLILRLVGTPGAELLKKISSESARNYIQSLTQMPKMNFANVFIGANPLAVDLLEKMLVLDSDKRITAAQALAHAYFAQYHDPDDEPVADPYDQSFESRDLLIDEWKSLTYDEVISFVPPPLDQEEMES

Take `CC(C)C[C@H](NCc1ccc(-n2c(N)c(C(=O)c3ccc(F)cc3F)ccc2=O)cc1)C(=O)OC1CCCC1` [Example 9, Cyclopentyl(S)-2-{4-[6-Amino-5-(2,4-difluorobenzoyl)-2-oxo-2H-pyridin-1-yl]benzylamino}-4-methylpentanoate]: the results for the IC50 (in experiment [1]; in the experiment on THP-1 TNFα release; at p38 MAP Kinase a) were above 1000 nM, 100 to 1000 nM and below 100 nM, respectively.
Regarding `CC(C)C[C@H](NCCCOc1cc(F)c(-n2c(N)c(C(=O)c3ccc(F)cc3F)ccc2=O)c(F)c1)C(=O)OCCN1CCOCC1` [Example 47, 2-Morpholin-4-ylethyl N-(3-{4-[6-amino-5-(2,4-difluorobenzoyl)-2-oxopyridin-1(2H)-yl]-3,5-difluorophenoxy}propyl)-L-leucinate], the IC50 in experiment [1] was 100 to 1000 nM; in the experiment with THP-1 TNFα release, below 100 nM; at p38 MAP Kinase a it was below 100 nM.
Regarding `CC(C)C[C@H](NCCCOc1cc(F)c(-n2c(N)c(C(=O)c3ccc(F)cc3F)ccc2=O)c(F)c1)C(=O)OC1CCCC1` [Example 22, Cyclopentyl(S)-2-(3-{4-[6-Amino-5-(2,4-difluorobenzoyl)-2-oxo-2H-pyridin-1-yl]-3,5-difluorophenoxy}propylamino)-4-methyl pentanoate], the IC50 is 100 to 1000 nM in experiment [1], below 100 nM in the experiment with THP-1 TNFα release and below 100 nM on p38 MAP Kinase a.
For the compound `CC(C)C[C@H](NCCc1ccc(-n2c(N)c(C(=O)c3ccc(F)cc3)ccc2=O)cc1)C(=O)OC(C)(C)C` [Example 58, tert-Butyl N-[2-(4-{6-amino-5-[(4-fluorophenyl)carbonyl]-2-oxopyridin-1(2H)-yl}phenyl)ethyl]-L-leucinate], the results for the IC50 (in experiment [1]; with THP-1 TNFα release; at p38 MAP Kinase a) were 100 to 1000 nM, below 100 nM and 100 to 1000 nM, respectively.
Take `Nc1c(C(=O)c2ccc(F)cc2F)ccc(=O)n1-c1c(F)cc(OCCCN[C@@H](C(=O)OC2CCCC2)c2ccccc2)cc1F` [Example 42, Cyclopentyl (2R)-[(3-{4-[6-amino-5-(2,4-difluorobenzoyl)-2-oxopyridin-1 (2H)-yl]-3,5-difluorophenoxy}propyl)amino](phenyl)acetate]: the IC50 was 100 to 1000 nM in experiment [1], below 100 nM with THP-1 TNFα release and below 100 nM on p38 MAP Kinase a.
For the compound `Nc1c(C(=O)c2ccc(F)cc2F)ccc(=O)n1-c1c(F)cc(OCCCN[C@@H](Cc2ccccc2)C(=O)OC2CCCC2)cc1F` [Example 21, Cyclopentyl(S)-2-(3-{4-[6-Amino-5-(2,4-difluorobenzoyl)-2-oxo-2H-pyridin-1-yl]-3,5-difluorophenoxy}-propylamino)-3-phenyl propionate], the figures for the IC50 (in experiment [1]; with THP-1 TNFα release; at p38 MAP Kinase a) were above 1000 nM, below 100 nM and below 100 nM, respectively.
As for `CC(C)(C)OC(=O)[C@@H](NCCCOc1cc(F)c(-n2c(N)c(C(=O)c3ccc(F)cc3F)ccc2=O)c(F)c1)c1ccccc1` [Example 36, tert-Butyl(S)-(3-{4-[6-Amino-5-(2,4-difluorobenzoyl)-2-oxo-2H-pyridin-1-yl]-3,5-difluorophenoxy}propylamino)phenyl acetate], the values for the IC50 (in experiment [1]; with THP-1 TNFα release; at p38 MAP Kinase a) were above 1000 nM, below 100 nM and below 100 nM, respectively.
For `Nc1c(C(=O)c2ccc(F)cc2F)ccc(=O)n1-c1c(F)cc(OCCCN[C@H](C(=O)OC2CCCC2)C2CCCCC2)cc1F` [Example 48, Cyclopentyl(2S)-[(3-{4-[6-amino-5-(2,4-difluorobenzoyl)-2-oxopyridin-1(2H)-yl]-3,5-difluorophenoxy}propyl)amino](cyclohexyl)acetate], the IC50 in experiment [1] is above 1000 nM; in the experiment on THP-1 TNFα release, below 100 nM; on p38 MAP Kinase a it was below 100 nM.
